Several values for one entry are separate records, joined by “and”; a condition that tells them apart may be missing. Identical values can stand only once. Results filed as inconclusive are left out. The calls were made as follows: active = survival T/C of 150% or more; inactive = T/C below 125% in these data.
Test system: CD2F1 mice, Lymphoma 8 ip, survival T/C
Assay: NCI In Vivo Anticancer Drug Screen. Data for tumor model Lymphoma 8 (intraperitoneal) in CD2F1 (CDF1) mice
Settings: higher = longer survival
Method: The antitumor activity of compounds was measured in mice bearing transplantable tumors. Survival or tumor size were measured and the results are expressed as the measurement made in the treated group (T) divided by the measurement made in the vehicle treated control group (C). The tumor model used in this assay is Lymphoma 8 (intraperitoneal) in CD2F1 (CDF1) mice

[1] = endpoint: median survival time, dose: 75.0 mg/kg/injection, schedule: Q01DX005 (ip), vehicle: saline
[2] = endpoint: median survival time, dose: 150.0 mg/kg/injection, schedule: Q01DX005 (ip), vehicle: saline
[3] = endpoint: median survival time, dose: 50.0 mg/kg/injection, schedule: Q01DX009 (ip), vehicle: saline
[4] = endpoint: median survival time, dose: 100.0 mg/kg/injection, schedule: Q01DX009 (ip), vehicle: saline
[5] = endpoint: median survival time, dose: 50.0 mg/kg/injection, schedule: Q01DX005 (ip), vehicle: saline
[6] = endpoint: median survival time, dose: 100.0 mg/kg/injection, schedule: Q01DX005 (ip), vehicle: saline
[7] = endpoint: median survival time, dose: 200.0 mg/kg/injection, schedule: Q01DX005 (ip), vehicle: saline
[8] = endpoint: median survival time, dose: 400.0 mg/kg/injection, schedule: Q01DX005 (ip), vehicle: saline
[9] = endpoint: median survival time, dose: 100.0 mg/kg/injection, schedule: Q01DX005 (ip), vehicle: water
[10] = endpoint: median survival time, dose: 200.0 mg/kg/injection, schedule: Q01DX005 (ip), vehicle: water
[11] = endpoint: median survival time, dose: 400.0 mg/kg/injection, schedule: Q01DX005 (ip), vehicle: water
[12] = endpoint: median survival time, dose: 800.0 mg/kg/injection, schedule: Q01DX005 (ip), vehicle: water
[13] = endpoint: median survival time, dose: 12.5 mg/kg/injection, schedule: Q01DX001 (ip), vehicle: saline
[14] = endpoint: median survival time, dose: 12.5 mg/kg/injection, schedule: Q01DX005 (ip), vehicle: saline
[15] = endpoint: median survival time, dose: 25.0 mg/kg/injection, schedule: Q01DX001 (ip), vehicle: saline
[16] = endpoint: median survival time, dose: 25.0 mg/kg/injection, schedule: Q01DX005 (ip), vehicle: saline

Measured: T/C

CCSCCC(N)C(=O)O (configuration not stated)
inactive: endpoint: median survival time, dose: 37.5 mg/kg/injection, schedule: Q01DX005 (ip), vehicle: saline 107 % of control and 109 % of control | [1] 100 % of control and 103 % of control | [2] 81 % of control

CC(=O)Nc1c(Cl)cc2c(c1Cl)Cc1cc([N+](=O)[O-])ccc1-2
inactive: endpoint: survival time, mean or median, dose: 3.9 mg/kg/injection, schedule: Q01DX010 (ip), vehicle: saline 87 % of control

NC(=O)C(F)(F)C(N)C(=O)O (configuration not stated)
inactive: [3] 88 % of control | [4] 88 % of control

NC(C(=O)O)C(F)(F)C(=O)O (configuration not stated)
inactive: endpoint: median survival time, dose: 3.12 mg/kg/injection, schedule: Q01DX009 (ip), vehicle: saline 93 % of control | endpoint: median survival time, dose: 6.25 mg/kg/injection, schedule: Q01DX009 (ip), vehicle: saline 97 % of control | endpoint: median survival time, dose: 12.5 mg/kg/injection, schedule: Q01DX009 (ip), vehicle: saline 87 % of control and 89 % of control | endpoint: median survival time, dose: 25.0 mg/kg/injection, schedule: Q01DX009 (ip), vehicle: saline 100 % of control | [3] 107 % of control

N=[N+]=CC(=O)OCC(N)C(=O)O (configuration not stated)
active: endpoint: median survival time, dose: 2.0 mg/kg/injection, schedule: Q14DX016 (ip), vehicle: saline 150 % of control

NC(=O)CC(N)CO (configuration not stated)
inactive: [3] 87 % of control and 100 % of control | [4] 91 % of control and 100 % of control | endpoint: median survival time, dose: 200.0 mg/kg/injection, schedule: Q01DX009 (ip), vehicle: saline 97 % of control and 98 % of control | endpoint: median survival time, dose: 400.0 mg/kg/injection, schedule: Q01DX009 (ip), vehicle: saline 91 % of control and 102 % of control

CC(=O)NC(CCC(=O)C=[N+]=N)C(=O)O (configuration not stated)
inactive: endpoint: median survival time, dose: 0.5 mg/kg/injection, schedule: Q01DX002 (ip), vehicle: saline 100 % of control | endpoint: median survival time, dose: 0.5 mg/kg/injection, schedule: Q04DX002 (ip), vehicle: saline 96 % of control | endpoint: median survival time, dose: 1.0 mg/kg/injection, schedule: Q01DX002 (ip), vehicle: saline 103 % of control | endpoint: median survival time, dose: 1.0 mg/kg/injection, schedule: Q04DX002 (ip), vehicle: saline 114 % of control | endpoint: median survival time, dose: 2.0 mg/kg/injection, schedule: Q01DX002 (ip), vehicle: saline 106 % of control | endpoint: median survival time, dose: 2.0 mg/kg/injection, schedule: Q04DX002 (ip), vehicle: saline 107 % of control

Nc1ncn(C2OC(CO)C(O)C2O)c(=O)n1 (configuration not stated)
inactive: endpoint: median survival time, dose: 0.75 mg/kg/injection, schedule: Q01DX005 (ip), vehicle: saline 116 % of control
active: endpoint: median survival time, dose: 3.0 mg/kg/injection, schedule: Q01DX005 (ip), vehicle: saline 158 % of control

NC(CS(N)(=O)=O)C(=O)O (configuration not stated)
inactive: [5] 92 % of control | [6] 92 % of control | [7] 96 % of control and 97 % of control | [8] 92 % of control and 94 % of control

NC(CC(=O)O)C(=O)O (configuration not stated)
inactive: [9] 95 % of control and 100 % of control | [10] 100 % of control | [11] 100 % of control | [12] 91 % of control

NC(CC(=O)CCl)C(=O)O (configuration not stated)
inactive: endpoint: median survival time, dose: 1.6 mg/kg/injection, schedule: Q01DX005 (ip), vehicle: saline 100 % of control | endpoint: median survival time, dose: 3.13 mg/kg/injection, schedule: Q01DX005 (ip), vehicle: saline 92 % of control and 96 % of control and 108 % of control | endpoint: median survival time, dose: 6.25 mg/kg/injection, schedule: Q01DX005 (ip), vehicle: saline 100 % of control and 103 % of control and 108 % of control | [13] 100 % of control | [14] 100 % of control and 103 % of control and 107 % of control | [15] 100 % of control | [16] 111 % of control and 114 % of control and 120 % of control | endpoint: median survival time, dose: 50.0 mg/kg/injection, schedule: Q01DX001 (ip), vehicle: saline 108 % of control | [5] 37 % of control | endpoint: median survival time, dose: 100.0 mg/kg/injection, schedule: Q01DX001 (ip), vehicle: saline 91 % of control

CNC(=O)CC(N)C(=O)O (configuration not stated)
inactive: [1] 96 % of control and 102 % of control | [2] 107 % of control and 113 % of control | endpoint: median survival time, dose: 300.0 mg/kg/injection, schedule: Q01DX005 (ip), vehicle: saline 93 % of control and 113 % of control | endpoint: median survival time, dose: 600.0 mg/kg/injection, schedule: Q01DX005 (ip), vehicle: saline 95 % of control and 114 % of control | endpoint: median survival time, dose: 1200.0 mg/kg/injection, schedule: Q01DX005 (ip), vehicle: saline 102 % of control

NC(=O)CC(N)C(=O)O (configuration not stated)
inactive: [9] 91 % of control | [10] 100 % of control | [11] 100 % of control | [12] 91 % of control

O=C1C=CC(=O)N1
inactive: endpoint: median survival time, dose: 0.25 mg/kg/injection, schedule: Q01DX009 (ip), vehicle: saline 98 % of control and 109 % of control | endpoint: median survival time, dose: 0.5 mg/kg/injection, schedule: Q01DX009 (ip), vehicle: saline 100 % of control and 102 % of control | endpoint: median survival time, dose: 1.0 mg/kg/injection, schedule: Q01DX009 (ip), vehicle: saline 95 % of control and 102 % of control | endpoint: median survival time, dose: 2.0 mg/kg/injection, schedule: Q01DX009 (ip), vehicle: saline 94 % of control and 95 % of control

NC(=O)OCC(N)C(=O)O (configuration not stated)
inactive: [5] 99 % of control and 100 % of control | [6] 100 % of control | [7] 88 % of control | [8] 92 % of control and 94 % of control

O=c1[nH]c(=O)n(C2CC(O)C(CO)O2)cc1F (configuration not stated)
inactive: endpoint: survival time, mean or median, dose: 5.0 mg/kg/injection, schedule: Q01DX010 (ip), vehicle: saline 104 % of control | endpoint: survival time, mean or median, dose: 10.0 mg/kg/injection, schedule: Q01DX010 (ip), vehicle: saline 109 % of control | endpoint: survival time, mean or median, dose: 20.0 mg/kg/injection, schedule: Q01DX010 (ip), vehicle: saline 113 % of control

NCC(=O)O
inactive: endpoint: median survival time, dose: 187.5 mg/kg/injection, schedule: Q04HX003 (ip), vehicle: saline 86 % of control | endpoint: median survival time, dose: 375.0 mg/kg/injection, schedule: Q04HX003 (ip), vehicle: saline 86 % of control | endpoint: median survival time, dose: 750.0 mg/kg/injection, schedule: Q04HX003 (ip), vehicle: saline 81 % of control | endpoint: median survival time, dose: 1500.0 mg/kg/injection, schedule: Q04HX003 (ip), vehicle: saline 75 % of control

NCCC(N)=O
inactive: [5] 92 % of control and 94 % of control | [6] 92 % of control and 94 % of control | [7] 92 % of control and 94 % of control | [8] 92 % of control and 94 % of control

O=NN(CCCl)C(=O)NCCCl
inactive: [5] 69 % of control | endpoint: survival time, mean or median, dose: 12.5 mg/kg/injection, schedule: Q01DX010 (ip), vehicle: saline 120 % of control | endpoint: survival time, mean or median, dose: 25.0 mg/kg/injection, schedule: Q01DX010 (ip), vehicle: saline 90 % of control
active: [13] 153 % of control | [14] 157 % of control | [15] 261 % of control | [16] 265 % of control | endpoint: survival time, mean or median, dose: 6.25 mg/kg/injection, schedule: Q01DX010 (ip), vehicle: saline 160 % of control and 165 % of control

c1ccc(CNc2ncnc3[nH]ncc23)cc1
inactive: endpoint: survival time, mean or median, dose: 8.0 mg/kg/injection, schedule: Q01DX010 (ip), vehicle: saline 100 % of control | endpoint: survival time, mean or median, dose: 16.0 mg/kg/injection, schedule: Q01DX010 (ip), vehicle: saline 95 % of control | endpoint: survival time, mean or median, dose: 32.0 mg/kg/injection, schedule: Q01DX010 (ip), vehicle: saline 95 % of control and 100 % of control | endpoint: survival time, mean or median, dose: 64.0 mg/kg/injection, schedule: Q01DX010 (ip), vehicle: saline 90 % of control

Reference: PubChem BioAssay AID244 (DTP/NCI, 2004)
